Measurements taken from ChEMBL document CHEMBL1201862, “PubChem BioAssay data set” (2004).
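The compound was tested at five concentrations on cells cultured in 96-well plates, with a 48-hour exposure period. The concentration for 50% growth inhibition is given as GI50.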 Calls of active or inactive are those of the source. Cut-off read from the data, not from the text of the source: active = GI50 up to about 1.1 µM and inactive = higher.

Experiments:
Assay in all cases: NCI-60 cell line screen, 48 h
OVCAR-4 = system: OVCAR-4
SK-MEL-2 = system: SK-MEL-2
OVCAR-3 = system: OVCAR-3
SNB-19 = system: SNB-19
M14 = system: M14
NCI/ADR-RES = system: NCI/ADR-RES
HOP-92 = system: HOP-92
BT-549 = system: BT-549
RXF 393 = system: RXF 393
SF-295 = system: SF-295
NCI-H522 = system: NCI-H522
NCI-H460 = system: NCI-H460
NCI-H226 = system: NCI-H226
KM12 = system: KM12
SF-268 = system: SF-268
NCI-H23 = system: NCI-H23
HOP-62 = system: HOP-62
MCF7 = system: MCF7
HCC 2998 = system: HCC 2998
Malme-3M = system: Malme-3M

| SMILES | GI50 (OVCAR-4) | GI50 (SK-MEL-2) | GI50 (OVCAR-3) | GI50 (SNB-19) | GI50 (M14) | GI50 (NCI/ADR-RES) | GI50 (HOP-92) | GI50 (BT-549) | GI50 (RXF 393) | GI50 (SF-295) | GI50 (NCI-H522) | GI50 (NCI-H460) | GI50 (NCI-H226) | GI50 (KM12) | GI50 (SF-268) | GI50 (NCI-H23) | GI50 (HOP-62) | GI50 (MCF7) | GI50 (HCC 2998) | GI50 (Malme-3M) |
| --- | --- | --- | --- | --- | --- | --- | --- | --- | --- | --- | --- | --- | --- | --- | --- | --- | --- | --- | --- | --- |
| CC(CC[C@@]1(O)OC2C[C@H]3[C@@H]4CC[C@H]5CC(OC6OC(CO)C(OC7OC(CO)C(O)C(OC8OCC(O)C(O)C8O)C7OC7OC(CO)C(O)C(O)C7O)C(O)C6O)[C@H](O)CC5(C)[C@H]4CCC3(C)C2[C@@H]1C)COC1OC(CO)C(O)C(O)C1O (stereo not given in full) | 9.79 µM (inactive) | 13.4 µM (inactive) | 3.46 µM (inactive) | 28.3 µM (inactive) | 25 µM (inactive) | 6.65 µM (inactive) | 17.7 µM (inactive) | 1.76 µM (inactive) | 4.28 µM (inactive) | 4.24 µM (inactive) | 2.87 µM (inactive) | 2.09 µM (inactive) | 13.5 µM (inactive) | 15.3 µM (inactive) | 2.48 µM (inactive) | 2.8 µM (inactive) | 4.15 µM (inactive) | 8.71 µM (inactive) | 13.8 µM (inactive) | 15.2 µM (inactive) |
| CC1OC(OC2C(O)COC(OC3C(C)OC(OC4C(OC(=O)[C@]56CCC(C)(C)C[C@@H]5C5=CCC7[C@@]8(C)C[C@H](O)[C@H](OC9OC(CO)C(O)C(OC%10OC(CO)C(O)C(O)C%10O)C9O)[C@@](C)(CO)[C@@H]8CC[C@@]7(C)[C@]5(C)CC6)OCC(O)C4O)C(O)C3OC3OCC(O)C(O)C3O)C2O)C(O)C(O)C1O (stereo not given in full) | 11.7 µM (inactive) | 3.47 µM (inactive) | 11.4 µM (inactive) | 7.67 µM (inactive) | 1.87 µM (inactive) | 10.9 µM (inactive) | 12.3 µM (inactive) | 9.57 µM (inactive) | 5.55 µM (inactive) | 3.14 µM (inactive) | 9.93 µM (inactive) | 17.4 µM (inactive) | 7.82 µM (inactive) | 8.61 µM (inactive) | 12.2 µM (inactive) | 4.04 µM (inactive) | 6.76 µM (inactive) | 17.3 µM (inactive) | 2.07 µM (inactive) | 10.1 µM (inactive) |
| CN(C)CCCNC(CC#N)CCC#N (stereo not given) | > 10 µM (inactive) | > 10 µM (inactive) | > 10 µM (inactive) | > 10 µM (inactive) | > 10 µM (inactive) | > 10 µM (inactive) | > 10 µM (inactive) | > 10 µM (inactive) | > 10 µM (inactive) | > 10 µM (inactive) | > 10 µM (inactive) | > 10 µM (inactive) | > 10 µM (inactive) | > 10 µM (inactive) | > 10 µM (inactive) | > 10 µM (inactive) | > 10 µM (inactive) | > 10 µM (inactive) | > 10 µM (inactive) | > 10 µM (inactive) |
| C#C[C@]1(O)CC[C@H]2[C@@H]3CCC4=C/C(=N/OC(=O)c5cccc6c(=O)c7ccccc7[nH]c56)CCC4[C@H]3CC[C@@]21CC (stereo not given in full) | 49.3 µM (inactive) | 32.4 µM (inactive) | 18.7 µM (inactive) | 69.3 µM (inactive) | 34.5 µM (inactive) | 15.8 µM (inactive) | 42.6 µM (inactive) | 17 µM (inactive) | 2.34 µM (inactive) | 3.69 µM (inactive) | 20.8 µM (inactive) | 14.3 µM (inactive) | > 48.9 µM (inactive) | 20.1 µM (inactive) | 66.4 µM (inactive) | 26.4 µM (inactive) | 49.1 µM (inactive) | 25.1 µM (inactive) | 26.5 µM (inactive) | 34.7 µM (inactive) |
| CCOC(=O)N1C/C(=C\c2ccccc2)C(=O)/C(=C/c2ccccc2)C1 | 2.37 µM (inactive) | 6.7 µM (inactive) | 4.23 µM (inactive) | 4.72 µM (inactive) | 2.77 µM (inactive) | 9.12 µM (inactive) | 6.56 µM (inactive) | 2.3 µM (inactive) | 4.01 µM (inactive) | 3.01 µM (inactive) | 2.56 µM (inactive) | 4 µM (inactive) | 4.56 µM (inactive) | 2.03 µM (inactive) | 4.17 µM (inactive) | 5.31 µM (inactive) | 4.41 µM (inactive) | 0.955 µM (active) | 1.94 µM (inactive) | 7.36 µM (inactive) |
| O=C(CCC1CCCCC1)NCc1ccc(C(=O)O)cc1 | > 100 µM (inactive) | > 100 µM (inactive) | > 100 µM (inactive) | > 100 µM (inactive) | > 100 µM (inactive) | > 100 µM (inactive) | > 100 µM (inactive) | > 100 µM (inactive) | > 100 µM (inactive) | > 100 µM (inactive) | > 100 µM (inactive) | > 100 µM (inactive) | > 100 µM (inactive) | > 100 µM (inactive) | > 100 µM (inactive) | > 100 µM (inactive) | > 100 µM (inactive) | > 100 µM (inactive) | > 100 µM (inactive) | > 100 µM (inactive) |
| Cc1cc(C)nc(NS(=O)(=O)c2ccc(Nc3c4ccccc4nc4ccc(C(=O)Nc5ccc(S(N)(=O)=O)cc5)cc34)cc2)n1 | > 100 µM (inactive) | > 100 µM (inactive) | > 100 µM (inactive) | > 100 µM (inactive) | > 100 µM (inactive) | 69.3 µM (inactive) | > 100 µM (inactive) | 24.9 µM (inactive) | > 100 µM (inactive) | > 100 µM (inactive) | > 100 µM (inactive) | > 100 µM (inactive) | > 100 µM (inactive) | > 100 µM (inactive) | > 100 µM (inactive) | > 100 µM (inactive) | > 100 µM (inactive) | > 100 µM (inactive) | > 100 µM (inactive) | > 100 µM (inactive) |
| C[C@H](CCC(=O)O)[C@H]1CC[C@@]2(C)[C@@H]3C(=O)C[C@H]4C(C)(C)[C@@H](O)CC[C@]4(C)[C@H]3C(=O)C[C@]12C | > 100 µM (inactive) | > 100 µM (inactive) | > 100 µM (inactive) | > 100 µM (inactive) | > 100 µM (inactive) | > 100 µM (inactive) | > 100 µM (inactive) | > 100 µM (inactive) | > 100 µM (inactive) | > 100 µM (inactive) | > 100 µM (inactive) | 62.7 µM (inactive) | > 100 µM (inactive) | > 100 µM (inactive) | > 100 µM (inactive) | > 100 µM (inactive) | > 100 µM (inactive) | > 100 µM (inactive) | > 100 µM (inactive) | > 100 µM (inactive) |
| CO/C=C(/C(=O)OC)c1ccccc1[C@H]1C[C@@H]1c1ccccc1 | 17.8 µM (inactive) | 17.2 µM (inactive) | 18.5 µM (inactive) | 48.3 µM (inactive) | 19.2 µM (inactive) | 24 µM (inactive) | 21.3 µM (inactive) | 20.5 µM (inactive) | 49.3 µM (inactive) | 23.1 µM (inactive) | 12.9 µM (inactive) | 19.7 µM (inactive) | 20.5 µM (inactive) | 20.1 µM (inactive) | 24.4 µM (inactive) | 23.2 µM (inactive) | 35.2 µM (inactive) | 29 µM (inactive) | 20.6 µM (inactive) | 13.1 µM (inactive) |
| COc1c(O)cc2c(c1O)C1O[C@H](CO)C(O)[C@H](O)[C@H]1OC2=O (stereo not given in full) | > 100 µM (inactive) | > 100 µM (inactive) | > 100 µM (inactive) | > 100 µM (inactive) | > 100 µM (inactive) | > 100 µM (inactive) | > 100 µM (inactive) | > 100 µM (inactive) | > 100 µM (inactive) | > 100 µM (inactive) | > 100 µM (inactive) | > 100 µM (inactive) | > 100 µM (inactive) | > 100 µM (inactive) | > 100 µM (inactive) | > 100 µM (inactive) | > 100 µM (inactive) | > 100 µM (inactive) | > 100 µM (inactive) | > 100 µM (inactive) |
